Columns and labels:
HLA-A*02:01 = HLA-A*02:01 (Homo sapiens, UniProt P04439, D140Y/D185E/D98H/E176V/E277Q/G131W/G231S/I119V/I121R/I166T/I218V/L300P/L318F/N151K/N90K/P208A/P217A/Q86G/Q94H/R138H/R169H/T345S); test: MHC binding assay, UV-ligand exchange with beta2m ELISA (exchange yield), HLA-A*02; conditions: binding to HLA-A*02 ranged by peptide exchange yield
Description: Candidate peptides for T cell based therapies according to the present invention were further tested for their MHC binding capacity (affinity). The individual peptide-MHC complexes were produced by UV-ligand exchange, where a UV-sensitive peptide is cleaved upon UV-irradiation, and exchanged with the peptide of interest as analyzed. Only peptide candidates that can effectively bind and stabilize the peptide-receptive MHC molecules prevent dissociation of the MHC complexes. To determine the yield of the exchange reaction, an ELISA was performed based on the detection of the light chain (β2m) of stabilized MHC complexes. The assay was performed as generally described in Rodenko et al. (Rodenko et al., 2006).
96 well MAXISorp plates (NUNC) were coated over night with 2 ug/ml streptavidin in PBS at room temperature, washed 4× and blocked for 1 h at 37° C. in 2% BSA containing blocking buffer. […] Peptide-MHC monomers of the UV-exchange reaction were diluted 100 fold in blocking buffer. Samples were incubated for 1 h at 37° C., washed four times, incubated with 2 ug/ml HRP conjugated anti-β2m for 1h at 37° C., washed again and detected with TMB solution that is stopped with […]. Absorption was measured at 450 nm. Candidate peptides that show a high exchange yield (preferably higher than 50%, most preferred higher than 75%) are generally preferred for a generation and production of antibodies or fragments thereof, and/or T cell receptors or fragments thereof, as they show sufficient avidity to the MHC molecules and prevent dissociation of the MHC complexes.

HLA-A*24 = test: MHC binding assay, UV-ligand exchange with beta2m ELISA (exchange yield), HLA-A*24; set-up: species or system human; conditions: binding to HLA-A*24, UV-ligand exchange
Outline: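 Peptide–MHC complexes formed by UV-ligand exchange: a UV-cleavable peptide is replaced by the test peptide, and only binders keep the complex stable. Exchange yield read by streptavidin-capture ELISA on reactions diluted 100-fold, detected with HRP anti-β2m (2 ug/ml, 1 h, 37° C) and TMB at 450 nm.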

Substance | Peptide exchange (MHC class I binding score) (HLA-A*02:01) | Peptide exchange (MHC class I binding score, peptide exchange yield) (HLA-A*24)
1 (PLWGKVFYL; listed as Homo sapiens) [compound 1] | ++ (20%-49% = ++) | –
3 (TLLGKQVTL; listed as Homo sapiens) [compound 3] | +++ (50%-75% = +++) | –
4 (ELAEIVFKV; listed as Homo sapiens) [compound 4] | +++ (50%-75% = +++) | –
5 (SLFGQEVYC; listed as Homo sapiens) [compound 5] | +++ (50%-75% = +++) | –
6 (FLDPAQRDL; listed as Homo sapiens) [compound 6] | +++ (50%-75% = +++) | –
10 (KTLDVFNIIL; listed as Homo sapiens) [compound 10] | ++ (20%-49% = ++) | –
11 (GVLKVFLENV; listed as Homo sapiens) [compound 11] | ++ (20%-49% = ++) | –
12 (GLIYEETRGV; listed as Homo sapiens) [compound 12] | ++ (20%-49% = ++) | –
13 (VLRDNIQGI; listed as Homo sapiens) [compound 13] | +++ (50%-75% = +++) | –
14 (LLDHLSFINKI; listed as Homo sapiens) [compound 14] | ++ (20%-49% = ++) | –
16 (HLYNNEEQV; listed as Homo sapiens) [compound 16] | ++ (20%-49% = ++) | –
18 (YVLNEEDLQKV; listed as Homo sapiens) [compound 18] | +++ (50%-75% = +++) | –
19 (TLLPTVLTL; listed as Homo sapiens) [compound 19] | +++ (50%-75% = +++) | –
20 (ALDGHLYAI; listed as Homo sapiens) [compound 20] | +++ (50%-75% = +++) | –
21 (SLYHRVLLY; listed as Homo sapiens) [compound 21] | ++++ (>=75% = ++++) | –
22 (MLSDLTLQL; listed as Homo sapiens) [compound 22] | ++++ (>=75% = ++++) | –
23 (AQTVVVIKA; listed as Homo sapiens) [compound 23] | + (<20% = +) | –
24 (FLWNGEDSAL; listed as Homo sapiens) [compound 24] | +++ (50%-75% = +++) | –
25 (IQADDFRTL; listed as Homo sapiens) [compound 25] | ++ (20%-49% = ++) | –

Substance | Peptide exchange (MHC class I binding score) (HLA-A*02:01) | Peptide exchange (MHC class I binding score, peptide exchange yield) (HLA-A*24)
26 (KVDGVVIQL; listed as Homo sapiens) [compound 26] | +++ (50%-75% = +++) | –
314 (RYFKGDYSI; listed as Homo sapiens) [compound 314] | – | +++ (50%-75% = +++)
315 (FYIPHVPVSF; listed as Homo sapiens) [compound 315] | – | +++ (50%-75% = +++)
316 (VYFEGSDFKF; listed as Homo sapiens) [compound 316] | – | +++ (50%-75% = +++)
317 (VFDTSIAQLF; listed as Homo sapiens) [compound 317] | – | +++ (50%-75% = +++)
318 (TYSNSAFQYF; listed as Homo sapiens) [compound 318] | – | +++ (50%-75% = +++)
319 (KYSDVKNLI; listed as Homo sapiens) [compound 319] | – | ++++ (>=75% = ++++)
341 (SYLTQHQRI; listed as Homo sapiens) [compound 341] | – | +++ (50%-75% = +++)
342 (NYAFLHRTL; listed as Homo sapiens) [compound 342] | – | +++ (50%-75% = +++)
343 (NYLGGTSTI; listed as Homo sapiens) [compound 343] | – | +++ (50%-75% = +++)
347 (VYAEVNSL; listed as Homo sapiens) [compound 347] | – | +++ (50%-75% = +++)
348 (IYLEHTESI; listed as Homo sapiens) [compound 348] | – | +++ (50%-75% = +++)
352 (QYGGDLTNTF; listed as Homo sapiens) [compound 352] | – | +++ (50%-75% = +++)
355 (IYVTGGHLF; listed as Homo sapiens) [compound 355] | – | +++ (50%-75% = +++)
357 (QFITSTNTF; listed as Homo sapiens) [compound 357] | – | ++++ (>=75% = ++++)
361 (TYADIGGLDNQI; listed as Homo sapiens) [compound 361] | – | +++ (50%-75% = +++)
362 (VYNYAEQTL; listed as Homo sapiens) [compound 362] | – | ++ (20%-49% = ++)
364 (KYLNENQLSQL; listed as Homo sapiens) [compound 364] | – | +++ (50%-75% = +++)
368 (KYQNVKHNL; listed as Homo sapiens) [compound 368] | – | +++ (50%-75% = +++)

Substance | Peptide exchange (MHC class I binding score) (HLA-A*02:01) | Peptide exchange (MHC class I binding score, peptide exchange yield) (HLA-A*24)
369 (VYTHEVVTL; listed as Homo sapiens) [compound 369] | – | +++ (50%-75% = +++)
370 (RFIGIPNQF; listed as Homo sapiens) [compound 370] | – | +++ (50%-75% = +++)
372 (VYVIEPHSMEF; listed as Homo sapiens) [compound 372] | – | +++ (50%-75% = +++)
373 (GYISNGELF; listed as Homo sapiens) [compound 373] | – | +++ (50%-75% = +++)
374 (VFLPRVTEL; listed as Homo sapiens) [compound 374] | – | ++ (20%-49% = ++)
375 (KYTDYILKI; listed as Homo sapiens) [compound 375] | – | +++ (50%-75% = +++)
376 (VYTPVASRQSL; listed as Homo sapiens) [compound 376] | – | +++ (50%-75% = +++)
377 (QYTPHSHQF; listed as Homo sapiens) [compound 377] | – | +++ (50%-75% = +++)
378 (VYIAELEKI; listed as Homo sapiens) [compound 378] | – | +++ (50%-75% = +++)
379 (VFIAQGYTL; listed as Homo sapiens) [compound 379] | – | ++++ (>=75% = ++++)
381 (KYPASSSVF; listed as Homo sapiens) [compound 381] | – | +++ (50%-75% = +++)
382 (AYLPPLQQVF; listed as Homo sapiens) [compound 382] | – | +++ (50%-75% = +++)
383 (RYKPGEPITF; listed as Homo sapiens) [compound 383] | – | +++ (50%-75% = +++)
384 (RYFDVGLHNF; listed as Homo sapiens) [compound 384] | – | +++ (50%-75% = +++)
385 (QYIEELQKF; listed as Homo sapiens) [compound 385] | – | +++ (50%-75% = +++)
386 (TFSDVEAHF; listed as Homo sapiens) [compound 386] | – | +++ (50%-75% = +++)
387 (KYTEKLEEI; listed as Homo sapiens) [compound 387] | – | +++ (50%-75% = +++)
388 (IYGEKTYAF; listed as Homo sapiens) [compound 388] | – | +++ (50%-75% = +++)

From patent US10130693B2, “Peptides, combination of peptides and scaffolds for use in immunotherapeutic treatment of various cancers” (Immatics Biotechnologies GmbH, priority 2015, dated 2018)
